Laboratory results taken from patent US10952992B2, “Methods of treating intraocular pressure with activators of Tie-2” (Aerpio Pharmaceuticals, Inc., priority 2015, dated 2021).
“And” between values parts separate entries of the source, which are not always exact repeats. Equal values may be shown once. Where a name gives a salt, the structure may show the parent alone.

Assay: Example 2 iris, retina, choroid and cornea tissue concentrations
Type: in vivo, male New Zealand White rabbits
Conditions: for Average / Conc. (ng/g) OD / Conc. (ng/g) OS / Conc. (ng/mL) OD / Conc. (ng/mL) OS: Retina; for Choroid Conc. OS / Choroid Conc. OD: choroid homogenate; for Choroid Conc. OS / Choroid tissue Conc. OS / Cornea Conc. OS / Cornea tissue Conc. OS / Iris Conc. OS / Iris tissue Conc. OS / Retina Conc. OS / Retina tissue Conc. OS: left eye; for Choroid Conc. OS / Choroid Conc. OD / Choroid tissue Conc. OS / Choroid tissue Conc. OD / Cornea Conc. OS / Cornea Conc. OD / Cornea tissue Conc. OS / Cornea tissue Conc. OD / Iris Conc. OS / Iris Conc. OD / Iris tissue Conc. OS / Iris tissue Conc. OD / Retina Conc. OS / Retina Conc. OD / Retina tissue Conc. OS / Retina tissue Conc. OD: individual animals; for Choroid Conc. OS / Choroid Conc. OD / Choroid tissue Conc. Avg. / Choroid tissue Conc. OS / Choroid tissue Conc. OD / Cornea Conc. OS / Cornea Conc. OD / Cornea tissue Conc. Avg. / Cornea tissue Conc. OS / Cornea tissue Conc. OD / Iris Conc. OS / Iris Conc. OD / Iris tissue Conc. Avg. / Iris tissue Conc. OS / Iris tissue Conc. OD / Retina Conc. OS / Retina Conc. OD / Retina tissue Conc. Avg. / Retina tissue Conc. OS / Retina tissue Conc. OD: intravitreal 2.5 mg/eye (~1.55 mg/kg), Group 4; for Choroid Conc. OD / Choroid tissue Conc. OD / Cornea Conc. OD / Cornea tissue Conc. OD / Iris Conc. OD / Iris tissue Conc. OD / Retina Conc. OD / Retina tissue Conc. OD: right eye; for Choroid tissue Conc. Avg. / Cornea tissue Conc. Avg. / Iris tissue Conc. Avg. / Retina tissue Conc. Avg.: average; for Cornea Conc. OS / Cornea Conc. OD: cornea homogenate; for Iris Conc. OS / Iris Conc. OD: iris homogenate; for Retina Conc. OS / Retina Conc. OD: retina homogenate
Experimental: To measure the concentration of Compound 1 in plasma and ocular tissues following topical ocular, subcutaneous, and intravitreal administration, New Zealand White rabbits were administered Compound 1, and plasma and ocular samples were collected at pre-determined time points. Compound 1 formulations were prepared fresh on each day of dosing.
Ocular tissue samples from both eyes of each animal were collected and weights were recorded. Plasma and ocular tissue sample concentrations of Compound 1 were determined by LC-MS/MS.
Animals were anesthetized for ocular (topical) and intravitreal dosing following the 12IA7 IACUC protocol. Each rabbit received a bolus dose of test formulation either via topical ocular administration 3 times daily on Days 1 and 2 (at 0, 6, and 12 hours), and once on Day 3 (at 0 hours) into both eyes; via intravitreal administration into both eyes once on Day 1 (at 0 hours); or via subcutaneous administration 2 times daily on Days 1 and 2 (at 0 and 8 hours) and once daily on Day 3 (at 0 hours). Doses were given within an approximately 1 hour window each day where applicable.
On Day 1, for intravitreal administration, or on Day 3, for topical ocular and subcutaneous administration, at the appropriate ocular tissue collection time points, animals were euthanized and both eyes were enucleated immediately. Following enucleation, each eye was rinsed with phosphate-buffered saline. Ocular tissue samples from both eyes of each animal were collected at predetermined time points and weights were recorded. All the samples were frozen immediately on dry ice, and stored at −60° C. to −80° C. pending bioanalysis.
An LC-MS/MS method was developed for the determination of Compound 1 in rabbit aqueous tissues (plasma, aqueous and vitreous humor) and solid ocular tissue samples. A pre-study standard curve was analyzed to determine the specificity, range, and lower limit of quantitation of the method. Plasma and tissue homogenate study samples were extracted and analyzed. All the samples were treated identically to the standards.
One eight-point standard curve was used in each analytical batch. To be accepted, each batch must have had at least five of eight standards with accuracy within ±20% of nominal, except at the lower limit of quantification (LLOQ), where ±25% was acceptable.

[1] = 1 hr, subcutaneous 5 mg/kg/dose (Group 2), sodium salt
[2] = 1 hr, topical ocular 1.2 mg/eye (Group 1), sodium salt
[3] = 2 hr, subcutaneous 5 mg/kg/dose (Group 2), sodium salt
[4] = 4 hr, subcutaneous 5 mg/kg/dose (Group 2), sodium salt
[5] = 4 hr, topical ocular 1.2 mg/eye (Group 1), sodium salt

COC(=O)N[C@@H](Cc1ccccc1)C(=O)N[C@@H](Cc1ccc(NS(=O)(=O)O)cc1)c1csc(-c2cccs2)n1 [Compound 1 sodium salt]
Average [1]: 32.6 ng/g
Conc. (ng/g) OD [1]: 22.4 ng/g and 18.3 ng/g
Conc. (ng/g) OS [1]: 43.2 ng/g and 46.4 ng/g
Conc. (ng/mL) OD [1]: 2.04 ng/mL and 1.66 ng/mL
Conc. (ng/mL) OS [1]: 3.93 ng/mL and 4.22 ng/mL
Average [2]: 59.2 ng/g
Conc. (ng/g) OD [2]: 76.9 ng/g and 85.9 ng/g
Conc. (ng/mL) OD [2]: 6.99 ng/mL and 7.81 ng/mL
Average [3]: 16.4 ng/g
Conc. (ng/g) OD [3]: 15.0 ng/g
Conc. (ng/g) OS [3]: 17.8 ng/g
Average (2 hr, topical ocular 1.2 mg/eye (Group 1), sodium salt): 48.3 ng/g
Average [4]: 19.7 ng/g
Conc. (ng/g) OD [4]: 19.7 ng/g
Conc. (ng/mL) OS [4]: BLOQ
Average [5]: 405 ng/g
Conc. (ng/g) OS [5]: 64.8 ng/g
Choroid Conc. OS (6.0 hr): 105000 ng/mL and 44000 ng/mL
Choroid Conc. OD (6.0 hr): 164000 ng/mL and 31500 ng/mL
Choroid Conc. OS (24 hr): 9890 ng/mL and 10400 ng/mL
Choroid Conc. OD (24 hr): 11800 ng/mL and 18400 ng/mL
Choroid Conc. OS (48 hr): 3740 ng/mL and 2790 ng/mL
Choroid Conc. OD (48 hr): 3480 ng/mL and 4040 ng/mL
Choroid Conc. OS (72 hr): 282 ng/mL and 290 ng/mL
Choroid Conc. OD (72 hr): 107 ng/mL and 311 ng/mL
Choroid tissue Conc. Avg. (6.0 hr): 947375 ng/g
Choroid tissue Conc. OS (6.0 hr): 1155000 ng/g and 484000 ng/g
Choroid tissue Conc. OD (6.0 hr): 1804000 ng/g and 346500 ng/g
Choroid tissue Conc. Avg. (24 hr): 138848 ng/g
Choroid tissue Conc. OS (24 hr): 108790 ng/g and 114400 ng/g
Choroid tissue Conc. OD (24 hr): 129800 ng/g and 202400 ng/g
Choroid tissue Conc. Avg. (48 hr): 38638 ng/g
Choroid tissue Conc. OS (48 hr): 41140 ng/g and 30690 ng/g
Choroid tissue Conc. OD (48 hr): 38280 ng/g and 44440 ng/g
Choroid tissue Conc. Avg. (72 hr): 2723 ng/g
Choroid tissue Conc. OS (72 hr): 3102 ng/g and 3190 ng/g
Choroid tissue Conc. OD (72 hr): 1177 ng/g and 3421 ng/g
Cornea Conc. OS (6.0 hr): 6940 ng/mL and 6030 ng/mL
Cornea Conc. OD (6.0 hr): 6300 ng/mL and 6710 ng/mL
Cornea Conc. OS (24 hr): 1560 ng/mL and 1930 ng/mL
Cornea Conc. OD (24 hr): 2180 ng/mL and 2940 ng/mL
Cornea Conc. OS (48 hr): 662 ng/mL and 487 ng/mL
Cornea Conc. OD (48 hr): 1050 ng/mL and 538 ng/mL
Cornea Conc. OS (72 hr): 20.1 ng/mL and 58.1 ng/mL
Cornea Conc. OD (72 hr): 18.0 ng/mL and 56.9 ng/mL
Cornea tissue Conc. Avg. (6.0 hr): 71445 ng/g
Cornea tissue Conc. OS (6.0 hr): 76340 ng/g and 66330 ng/g
Cornea tissue Conc. OD (6.0 hr): 69300 ng/g and 73810 ng/g
Cornea tissue Conc. Avg. (24 hr): 23678 ng/g
Cornea tissue Conc. OS (24 hr): 17160 ng/g and 21230 ng/g
Cornea tissue Conc. OD (24 hr): 23980 ng/g and 32340 ng/g
Cornea tissue Conc. Avg. (48 hr): 7527 ng/g
Cornea tissue Conc. OS (48 hr): 7282 ng/g and 5357 ng/g
Cornea tissue Conc. OD (48 hr): 11550 ng/g and 5918 ng/g
Cornea tissue Conc. Avg. (72 hr): 421 ng/g
Cornea tissue Conc. OS (72 hr): 221 ng/g and 639 ng/g
Cornea tissue Conc. OD (72 hr): 198 ng/g and 626 ng/g
distribution among iris, retina, choroid, cornea (FIG. 15) (intravitreal 1.55 mg/kg, sodium salt): generally higher in the retina and choroid
Iris Conc. OS (6.0 hr): 34000 ng/mL and 30600 ng/mL
Iris Conc. OD (6.0 hr): 35500 ng/mL and 27800 ng/mL
Iris Conc. OS (24 hr): 7610 ng/mL and 25900 ng/mL
Iris Conc. OD (24 hr): 6890 ng/mL and 11000 ng/mL
Iris Conc. OS (48 hr): 1960 ng/mL and 2780 ng/mL
Iris Conc. OD (48 hr): 2380 ng/mL and 1820 ng/mL
Iris Conc. OS (72 hr): 225 ng/mL and 59.5 ng/mL
Iris Conc. OD (72 hr): 169 ng/mL and 110 ng/mL
Iris tissue Conc. Avg. (6.0 hr): 351725 ng/g
Iris tissue Conc. OS (6.0 hr): 374000 ng/g and 336600 ng/g
Iris tissue Conc. OD (6.0 hr): 390500 ng/g and 305800 ng/g
Iris tissue Conc. Avg. (24 hr): 141350 ng/g
Iris tissue Conc. OS (24 hr): 83710 ng/g and 284900 ng/g
Iris tissue Conc. OD (24 hr): 75790 ng/g and 121000 ng/g
Iris tissue Conc. Avg. (48 hr): 24585 ng/g
Iris tissue Conc. OS (48 hr): 21560 ng/g and 30580 ng/g
Iris tissue Conc. OD (48 hr): 26180 ng/g and 20020 ng/g
Iris tissue Conc. Avg. (72 hr): 1550 ng/g
Iris tissue Conc. OS (72 hr): 2475 ng/g and 655 ng/g
Iris tissue Conc. OD (72 hr): 1859 ng/g and 1210 ng/g
Retina Conc. OS (6.0 hr): 41100 ng/mL and 82300 ng/mL
Retina Conc. OD (6.0 hr): 39200 ng/mL and 119000 ng/mL
Retina Conc. OS (24 hr): 28000 ng/mL and 3700 ng/mL
Retina Conc. OD (24 hr): 29200 ng/mL and 35200 ng/mL
Retina Conc. OS (48 hr): 6030 ng/mL and 6530 ng/mL
Retina Conc. OD (48 hr): 6490 ng/mL and 7360 ng/mL
Retina Conc. OS (72 hr): 370 ng/mL and 484 ng/mL
Retina Conc. OD (72 hr): 750 ng/mL and 598 ng/mL
Retina tissue Conc. Avg. (6.0 hr): 774400 ng/g
Retina tissue Conc. OS (6.0 hr): 452100 ng/g and 905300 ng/g
Retina tissue Conc. OD (6.0 hr): 431200 ng/g and 1309000 ng/g
Retina tissue Conc. Avg. (24 hr): 355850 ng/g
Retina tissue Conc. OS (24 hr): 308000 ng/g and 407000 ng/g
Retina tissue Conc. OD (24 hr): 321200 ng/g and 387200 ng/g
Retina tissue Conc. Avg. (48 hr): 72628 ng/g
Retina tissue Conc. OS (48 hr): 66330 ng/g and 71830 ng/g
Retina tissue Conc. OD (48 hr): 71390 ng/g and 80960 ng/g
Retina tissue Conc. Avg. (72 hr): 6056 ng/g
Retina tissue Conc. OS (72 hr): 4070 ng/g and 5324 ng/g
Retina tissue Conc. OD (72 hr): 8250 ng/g and 6578 ng/g
distribution among iris, retina, choroid, cornea (FIG. 13) (subcutaneous 5 mg/kg/dose, sodium salt): generally higher in the iris and choroid
ocular tissue concentrations, sodium salt solution compared to free acid suspension (subcutaneous and intravitreal administration): generally higher
distribution among iris, retina, choroid, cornea (FIG. 12) (topical ocular administration at 0.7 mg/kg/dose): generally higher in the cornea
